# Source: ChEMBL document CHEMBL5649169 (ChemMedChem, 2018)
# Legend:
# [1] = molecular target: Importin-9 (Homo sapiens) (UniProt Q96P70); further: assay method not described here
# [2] = molecular target: WASH complex subunit 5 (Homo sapiens) (UniProt Q12768); further: assay method not described here
# [3] = molecular target: Calmodulin-1 (Homo sapiens) (UniProt P0DP23); further: assay method not described here
# [4] = species on record: Homo sapiens; further: assay method not described here
# [5] = molecular target: Splicing factor, proline- and glutamine-rich (Homo sapiens) (UniProt P23246); further: assay method not described here
# [6] = molecular target: Serine/threonine-protein kinase PAK 4 (Homo sapiens) (UniProt O96013); further: assay method not described here
# [7] = molecular target: ATP-binding cassette sub-family E member 1 (Homo sapiens) (UniProt P61221); further: assay method not described here
# [8] = molecular target: Kinetochore-associated protein 1 (Homo sapiens) (UniProt P50748); further: assay method not described here
# Sequence of Kinetochore-associated protein 1 (Homo sapiens) (P50748 whole entry): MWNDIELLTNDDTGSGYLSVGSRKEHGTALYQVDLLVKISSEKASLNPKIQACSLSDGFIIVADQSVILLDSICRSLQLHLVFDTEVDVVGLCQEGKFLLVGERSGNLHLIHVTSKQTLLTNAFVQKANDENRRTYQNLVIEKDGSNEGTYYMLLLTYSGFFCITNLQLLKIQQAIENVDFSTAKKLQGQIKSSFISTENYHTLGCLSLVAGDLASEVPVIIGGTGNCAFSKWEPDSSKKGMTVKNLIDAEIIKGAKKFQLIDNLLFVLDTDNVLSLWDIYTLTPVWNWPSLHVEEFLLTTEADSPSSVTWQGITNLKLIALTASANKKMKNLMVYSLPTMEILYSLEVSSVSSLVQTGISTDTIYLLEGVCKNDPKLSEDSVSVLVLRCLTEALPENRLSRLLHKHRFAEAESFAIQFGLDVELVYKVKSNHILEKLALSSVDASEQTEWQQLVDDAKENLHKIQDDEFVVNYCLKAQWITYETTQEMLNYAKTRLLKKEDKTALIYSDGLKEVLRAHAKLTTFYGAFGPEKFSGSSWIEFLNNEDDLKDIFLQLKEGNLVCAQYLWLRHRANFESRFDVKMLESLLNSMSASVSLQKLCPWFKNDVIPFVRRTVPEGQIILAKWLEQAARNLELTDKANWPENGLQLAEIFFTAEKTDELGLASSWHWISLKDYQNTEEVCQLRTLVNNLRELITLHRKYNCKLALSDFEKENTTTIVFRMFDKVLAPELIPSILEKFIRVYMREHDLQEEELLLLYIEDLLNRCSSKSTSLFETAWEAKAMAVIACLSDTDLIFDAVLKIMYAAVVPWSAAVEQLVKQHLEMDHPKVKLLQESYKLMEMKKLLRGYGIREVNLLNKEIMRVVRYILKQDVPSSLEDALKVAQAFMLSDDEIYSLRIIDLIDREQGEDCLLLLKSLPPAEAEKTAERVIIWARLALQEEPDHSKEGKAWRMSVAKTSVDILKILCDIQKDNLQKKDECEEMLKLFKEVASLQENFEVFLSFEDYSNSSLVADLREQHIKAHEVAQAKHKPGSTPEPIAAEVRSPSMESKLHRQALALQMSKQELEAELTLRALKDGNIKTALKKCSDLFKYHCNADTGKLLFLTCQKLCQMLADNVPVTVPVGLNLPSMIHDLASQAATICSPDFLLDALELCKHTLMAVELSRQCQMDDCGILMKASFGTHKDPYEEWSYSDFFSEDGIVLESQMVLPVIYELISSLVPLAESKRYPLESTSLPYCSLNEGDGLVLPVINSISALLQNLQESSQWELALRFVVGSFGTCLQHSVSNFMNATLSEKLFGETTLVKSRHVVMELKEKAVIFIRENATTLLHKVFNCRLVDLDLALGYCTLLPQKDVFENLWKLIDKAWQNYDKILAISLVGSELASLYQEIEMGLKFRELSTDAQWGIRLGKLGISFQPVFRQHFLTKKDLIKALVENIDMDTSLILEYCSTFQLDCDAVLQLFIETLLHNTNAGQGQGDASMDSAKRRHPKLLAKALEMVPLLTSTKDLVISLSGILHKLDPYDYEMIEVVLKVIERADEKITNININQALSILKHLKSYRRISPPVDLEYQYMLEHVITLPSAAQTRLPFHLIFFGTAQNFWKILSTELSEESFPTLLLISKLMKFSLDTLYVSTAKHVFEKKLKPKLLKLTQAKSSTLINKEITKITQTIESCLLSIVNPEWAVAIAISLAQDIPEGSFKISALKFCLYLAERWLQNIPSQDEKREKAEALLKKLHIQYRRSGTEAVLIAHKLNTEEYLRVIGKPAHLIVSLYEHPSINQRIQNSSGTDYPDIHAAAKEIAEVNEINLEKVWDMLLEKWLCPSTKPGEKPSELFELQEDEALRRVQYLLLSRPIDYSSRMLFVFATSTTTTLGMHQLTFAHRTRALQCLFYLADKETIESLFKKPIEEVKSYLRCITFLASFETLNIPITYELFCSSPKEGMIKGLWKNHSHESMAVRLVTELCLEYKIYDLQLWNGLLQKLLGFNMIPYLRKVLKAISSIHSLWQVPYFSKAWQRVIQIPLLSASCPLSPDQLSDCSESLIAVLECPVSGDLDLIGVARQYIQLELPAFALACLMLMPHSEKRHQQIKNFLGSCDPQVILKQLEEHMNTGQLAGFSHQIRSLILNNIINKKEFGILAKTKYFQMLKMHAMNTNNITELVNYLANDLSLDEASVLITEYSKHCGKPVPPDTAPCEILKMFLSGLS
# [9] = molecular target: HLA class I histocompatibility antigen, C alpha chain (Homo sapiens) (UniProt P10321); further: assay method not described here
# [10] = molecular target: Exportin-T (Homo sapiens) (UniProt O43592); further: assay method not described here
# Sequence of Exportin-T (Homo sapiens) (O43592 whole entry): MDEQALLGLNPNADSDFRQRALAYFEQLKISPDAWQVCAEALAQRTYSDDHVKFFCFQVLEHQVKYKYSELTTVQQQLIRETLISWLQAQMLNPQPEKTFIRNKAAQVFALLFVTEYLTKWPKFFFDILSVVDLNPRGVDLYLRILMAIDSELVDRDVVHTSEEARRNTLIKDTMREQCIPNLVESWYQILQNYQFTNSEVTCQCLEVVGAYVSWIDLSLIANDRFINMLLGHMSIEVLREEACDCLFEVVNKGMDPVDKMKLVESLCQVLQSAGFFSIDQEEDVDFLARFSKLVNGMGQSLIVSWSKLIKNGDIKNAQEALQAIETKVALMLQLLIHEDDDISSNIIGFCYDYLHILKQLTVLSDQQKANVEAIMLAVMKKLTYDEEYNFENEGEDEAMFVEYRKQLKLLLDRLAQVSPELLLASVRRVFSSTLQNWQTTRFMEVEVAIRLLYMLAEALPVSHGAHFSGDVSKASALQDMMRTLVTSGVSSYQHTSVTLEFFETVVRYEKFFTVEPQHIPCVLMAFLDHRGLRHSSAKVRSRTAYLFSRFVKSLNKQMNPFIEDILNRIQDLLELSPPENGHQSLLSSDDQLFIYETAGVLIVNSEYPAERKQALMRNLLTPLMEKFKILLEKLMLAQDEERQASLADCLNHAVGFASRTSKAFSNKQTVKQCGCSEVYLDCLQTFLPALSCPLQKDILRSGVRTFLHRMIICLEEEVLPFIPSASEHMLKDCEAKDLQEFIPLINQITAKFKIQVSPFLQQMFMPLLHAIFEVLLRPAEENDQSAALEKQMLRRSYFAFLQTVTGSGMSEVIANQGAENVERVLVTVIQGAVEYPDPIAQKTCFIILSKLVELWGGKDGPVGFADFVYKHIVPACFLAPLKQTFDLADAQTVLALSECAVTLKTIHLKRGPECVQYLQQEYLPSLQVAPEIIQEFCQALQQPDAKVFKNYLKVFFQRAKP
# [11] = molecular target: Peroxisomal multifunctional enzyme type 2 (Homo sapiens) (UniProt P51659); further: assay method not described here
# [12] = molecular target: Leucine-rich repeat-containing protein 47 (Homo sapiens) (UniProt Q8N1G4); further: assay method not described here
# [13] = molecular target: Large ribosomal subunit protein uL4 (Homo sapiens) (UniProt P36578); further: assay method not described here
# [14] = molecular target: DNA replication licensing factor MCM4 (Homo sapiens) (UniProt P33991); further: assay method not described here
# Sequence of DNA replication licensing factor MCM4 (Homo sapiens) (P33991 whole entry, canonical isoform): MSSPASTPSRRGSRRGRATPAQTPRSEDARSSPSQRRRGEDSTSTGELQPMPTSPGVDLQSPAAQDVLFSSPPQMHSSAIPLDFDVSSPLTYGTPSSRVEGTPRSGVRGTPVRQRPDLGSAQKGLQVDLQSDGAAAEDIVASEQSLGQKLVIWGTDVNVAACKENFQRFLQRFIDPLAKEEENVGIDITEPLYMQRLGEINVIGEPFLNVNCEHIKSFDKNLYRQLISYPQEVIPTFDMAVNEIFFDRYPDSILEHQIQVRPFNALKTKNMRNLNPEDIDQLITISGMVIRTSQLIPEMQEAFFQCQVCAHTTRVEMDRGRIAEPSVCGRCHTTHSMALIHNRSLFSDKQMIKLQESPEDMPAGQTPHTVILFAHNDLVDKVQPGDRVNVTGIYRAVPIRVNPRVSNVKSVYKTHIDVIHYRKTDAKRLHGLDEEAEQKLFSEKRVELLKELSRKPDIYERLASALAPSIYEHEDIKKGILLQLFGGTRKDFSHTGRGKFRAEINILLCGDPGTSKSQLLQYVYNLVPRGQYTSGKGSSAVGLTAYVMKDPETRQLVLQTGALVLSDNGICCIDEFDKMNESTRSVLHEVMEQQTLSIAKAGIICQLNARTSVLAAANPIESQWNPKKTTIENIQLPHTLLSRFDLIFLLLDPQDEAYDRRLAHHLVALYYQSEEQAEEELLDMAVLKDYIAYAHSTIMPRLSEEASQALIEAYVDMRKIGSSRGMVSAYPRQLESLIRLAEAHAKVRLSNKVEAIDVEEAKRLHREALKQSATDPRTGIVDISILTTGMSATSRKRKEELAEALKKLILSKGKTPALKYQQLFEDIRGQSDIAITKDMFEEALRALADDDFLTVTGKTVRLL
# [15] = molecular target: Casein kinase I isoform delta (Homo sapiens) (UniProt P48730); further: assay method not described here
# [16] = molecular target: Ubiquitin carboxyl-terminal hydrolase 5 (Homo sapiens) (UniProt P45974); further: assay method not described here
# [17] = molecular target: Syndecan-1 (Homo sapiens) (UniProt P18827); further: assay method not described here
# [18] = molecular target: RNA cytidine acetyltransferase (Homo sapiens) (UniProt Q9H0A0); further: assay method not described here
# [19] = molecular target: RuvB-like 1 (Homo sapiens) (UniProt Q9Y265); further: assay method not described here
# [20] = species on record: Homo sapiens; remark: listed apart in the source; further: assay method not described here
# [21] = molecular target: ATP synthase F(0) complex subunit k, mitochondrial (Homo sapiens) (UniProt Q96IX5); further: assay method not described here
# [22] = molecular target: Staphylococcal nuclease domain-containing protein 1 (Homo sapiens) (UniProt Q7KZF4); further: assay method not described here
# [23] = molecular target: Tyrosine-protein kinase JAK1 (Homo sapiens) (UniProt P23458); further: assay method not described here
# [24] = molecular target: Fanconi anemia group I protein (Homo sapiens) (UniProt Q9NVI1); further: assay method not described here
# [25] = molecular target: Cytochrome c oxidase subunit NDUFA4 (Homo sapiens) (UniProt O00483); further: assay method not described here
# [26] = molecular target: 5-azacytidine-induced protein 2 (Homo sapiens) (UniProt Q9H6S1); further: assay method not described here
# [27] = molecular target: Activin receptor type-1 (Homo sapiens) (UniProt Q04771); further: assay method not described here
# Sequence of Activin receptor type-1 (Homo sapiens) (Q04771 whole entry): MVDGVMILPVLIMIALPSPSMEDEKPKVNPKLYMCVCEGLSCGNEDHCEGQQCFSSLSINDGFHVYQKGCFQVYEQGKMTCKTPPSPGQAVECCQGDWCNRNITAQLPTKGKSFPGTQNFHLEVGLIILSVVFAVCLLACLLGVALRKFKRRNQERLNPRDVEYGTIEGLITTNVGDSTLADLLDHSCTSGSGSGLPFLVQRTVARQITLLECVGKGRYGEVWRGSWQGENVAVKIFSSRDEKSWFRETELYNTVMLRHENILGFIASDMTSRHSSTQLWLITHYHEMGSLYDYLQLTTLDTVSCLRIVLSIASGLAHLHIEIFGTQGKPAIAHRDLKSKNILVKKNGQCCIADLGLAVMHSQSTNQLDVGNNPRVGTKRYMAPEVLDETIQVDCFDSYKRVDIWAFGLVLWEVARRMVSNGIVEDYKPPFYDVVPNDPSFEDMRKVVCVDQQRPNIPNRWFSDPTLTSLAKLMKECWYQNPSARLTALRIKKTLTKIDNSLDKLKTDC
# [28] = molecular target: Small ribosomal subunit protein uS17m (Homo sapiens) (UniProt Q9Y2R5); further: assay method not described here
# [29] = molecular target: Serine/threonine-protein kinase MRCK gamma (Homo sapiens) (UniProt Q6DT37); further: assay method not described here
# [30] = molecular target: Structural maintenance of chromosomes protein 4 (Homo sapiens) (UniProt Q9NTJ3); further: assay method not described here
# [31] = molecular target: Membrane-bound acylglycerophosphatidylinositol O-acyltransferase MBOAT7 (Homo sapiens) (UniProt Q96N66); further: assay method not described here
# [32] = molecular target: Nucleolysin TIAR (Homo sapiens) (UniProt Q01085); further: assay method not described here
# Sequence of Nucleolysin TIAR (Homo sapiens) (Q01085 whole entry): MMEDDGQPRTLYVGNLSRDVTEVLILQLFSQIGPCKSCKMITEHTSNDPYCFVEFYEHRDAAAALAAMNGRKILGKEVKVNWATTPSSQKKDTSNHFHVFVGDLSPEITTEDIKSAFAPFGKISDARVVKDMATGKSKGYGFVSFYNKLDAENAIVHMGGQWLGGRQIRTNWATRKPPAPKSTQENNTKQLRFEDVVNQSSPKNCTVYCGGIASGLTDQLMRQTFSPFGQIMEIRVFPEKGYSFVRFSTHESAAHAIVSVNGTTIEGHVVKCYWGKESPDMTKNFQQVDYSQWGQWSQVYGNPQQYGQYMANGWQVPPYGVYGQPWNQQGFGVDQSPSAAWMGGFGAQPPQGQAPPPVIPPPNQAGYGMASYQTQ
# [33] = molecular target: Eukaryotic translation initiation factor 2A (Homo sapiens) (UniProt Q9BY44); further: assay method not described here
# [34] = molecular target: Isocitrate dehydrogenase [NADP], mitochondrial (Homo sapiens) (UniProt P48735); further: assay method not described here
# [35] = molecular target: Small ribosomal subunit protein eS21 (Homo sapiens) (UniProt P63220); further: assay method not described here
# [36] = molecular target: Heat shock cognate 71 kDa protein (Homo sapiens) (UniProt P11142); further: assay method not described here
# [37] = molecular target: Protein SDA1 homolog (Homo sapiens) (UniProt Q9NVU7); further: assay method not described here
# [38] = molecular target: Nuclear transport factor 2 (Homo sapiens) (UniProt P61970); further: assay method not described here
# Sequence of Nuclear transport factor 2 (Homo sapiens) (P61970 whole entry): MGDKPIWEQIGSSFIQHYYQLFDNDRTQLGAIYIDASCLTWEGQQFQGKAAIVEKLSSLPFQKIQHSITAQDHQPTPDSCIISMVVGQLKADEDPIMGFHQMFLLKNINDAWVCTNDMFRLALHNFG
# [39] = molecular target: Heat shock protein 105 kDa (Homo sapiens) (UniProt Q92598); further: assay method not described here
# [40] = molecular target: Putative heat shock protein HSP 90-beta 2 (Homo sapiens) (UniProt Q58FF8); further: assay method not described here
# [41] = molecular target: TBC1 domain family member 15 (Homo sapiens) (UniProt Q8TC07); further: assay method not described here
# [42] = molecular target: Golgi apparatus protein 1 (Homo sapiens) (UniProt Q92896); further: assay method not described here
# [43] = molecular target: Ephrin type-B receptor 4 (Homo sapiens, UniProt P54760); assay type: cell-based, HEK293T
# [44] = molecular target: Rho-associated protein kinase 2 (Homo sapiens) (UniProt O75116); further: assay method not described here
# [45] = molecular target: Large ribosomal subunit protein uL22 (Homo sapiens) (UniProt P18621); further: assay method not described here
# [46] = molecular target: Reticulon-4 (Homo sapiens) (UniProt Q9NQC3); further: assay method not described here
# [47] = molecular target: L-lactate dehydrogenase A chain (Homo sapiens) (UniProt P00338); further: assay method not described here
smiles,measurement,setting,value
Cc1ccc(C(=O)Nc2cccc(C(F)(F)F)c2)cc1Nc1nc(-c2cccnc2)nc2c1cnn2C,ED50,[1],19.2 µM
same,ED50,[2],0.000337 µM
same,ED50,[3],0.11 µM
same,ED50,[4],17.4 µM
same,ED50,[5],6.39 µM
same,ED50,[6],9.68 µM
same,ED50,[7],13.8 µM
same,ED50,[8],14 µM
same,ED50,[9],3.75 µM
same,ED50,[10],1.22 µM
same,ED50,[11],1.36 µM
same,ED50,[12],0.0207 µM
same,ED50,[13],4.73 µM
same,ED50,[14],73.3 µM
same,ED50,[15],10.4 µM
same,ED50,[16],130 µM
same,ED50,[17],1.77 µM
same,ED50,[18],0.000302 µM
same,ED50,[19],4.25 µM
same,ED50,[20],0.0636 µM
same,ED50,[21],128 µM
same,ED50,[22],23.6 µM
same,ED50,[23],0.0138 µM
same,ED50,[24],13 µM
same,ED50,[25],13.5 µM
same,ED50,[26],0.0383 µM
same,ED50,[27],0.00315 µM
same,ED50,[28],0.421 µM
same,ED50,[29],17.5 µM
same,ED50,[30],7.32 µM
same,ED50,[31],3.4 µM
same,ED50,[32],0.934 µM
same,ED50,[33],25.7 µM
same,ED50,[34],0.00187 µM
same,ED50,[35],60 µM
same,ED50,[36],0.121 µM
same,ED50,[37],0.065 µM
same,ED50,[38],0.00217 µM
same,ED50,[39],2.99 µM
same,ED50,[40],0.0112 µM
same,ED50,[41],0.829 µM
same,ED50,[42],6.56 µM
same,IC50,[43],0.003 µM
same,ED50,[44],0.0201 µM
same,ED50,[45],6.61 µM
same,ED50,[46],0.00531 µM
same,ED50,[47],0.00901 µM
Cc1ccc(C(=O)Nc2cccc(C(F)(F)F)c2)cc1Nc1nc(-c2cccnc2)nc2nn(C)cc12,ED50,[1],0.00375 µM
same,ED50,[2],3.06 µM
same,ED50,[3],0.213 µM
same,ED50,[4],0.0301 µM
same,ED50,[5],15 µM
same,ED50,[6],25.1 µM
same,ED50,[7],0.000362 µM
same,ED50,[8],0.0543 µM
same,ED50,[9],2.07 µM
same,ED50,[10],0.0299 µM
same,ED50,[11],0.85 µM
same,ED50,[12],0.00913 µM
same,ED50,[13],24.9 µM
same,ED50,[14],0.0763 µM
same,ED50,[15],0.0638 µM
same,ED50,[16],0.00988 µM
same,ED50,[17],1.07 µM
same,ED50,[18],0.235 µM
same,ED50,[19],8.41 µM
same,ED50,[20],233 µM
same,ED50,[21],0.0812 µM
same,ED50,[22],0.57 µM
same,ED50,[23],0.0748 µM
same,ED50,[24],2.2 µM
same,ED50,[25],70.3 µM
same,ED50,[26],6.47 µM
same,ED50,[27],34000 µM
same,ED50,[28],0.0305 µM
same,ED50,[29],0.0947 µM
same,ED50,[30],7.29 µM
same,ED50,[31],0.202 µM
same,ED50,[32],0.00129 µM
same,ED50,[33],0.0386 µM
same,ED50,[34],16.8 µM
same,ED50,[35],0.00683 µM
same,ED50,[36],1.76 µM
same,ED50,[37],0.000949 µM
same,ED50,[38],0.419 µM
same,ED50,[39],8.65 µM
same,ED50,[40],0.573 µM
same,ED50,[41],34.9 µM
same,ED50,[42],0.162 µM
same,IC50,[43],1.66 µM
same,ED50,[44],0.432 µM
same,ED50,[45],15.8 µM
same,ED50,[46],3.55 µM
same,ED50,[47],21.8 µM
